Reference: patent US20230414611A1, “REFINED USES OF GABA A RECEPTOR MODULATORS IN TREATMENT OF FRAGILE X SYNDROME” (CHILDREN'S HOSPITAL MEDICAL CENTER, priority 2020, published 2023)

Test system: adults with Fragile X Syndrome (FXS)
Assay: EEG relative band power
Type: in vivo, human
Excerpt: Brain cells communicate via electrical impulses and are active all the time, even a subject is asleep. Electroencephalogram (EEG) detects the electrical activity in the brain. EEG can measure alpha waves, beta waves, and gamma waves. FXS patients typically show low alpha (Alpha waves are involved in higher level, complex cognition) and elevated gamma (representing noise, excessive synaptic connectivity-brain cells over connecting). Gamma activations represent high frequency brain rhythms, which may coincide with functional brain activity and/or muscular activity.
EEG statistical analysis strategies used in this study include: (a) electrode-specific relative band power estimation; (b) applying crossover-trial modeling to validate the absence of period effect; and (c) testing the within-subject relative power change per condition (i.e., determining impact of AZD7325 on gamma power in a treated patient).

[1] = Placebo vs High dose, acute visit, FMRP undetectable subjects (n = 5)
[2] = Placebo vs High dose, acute visit, male subjects (n = 9)
[3] = Placebo vs High dose, chronic visit, FMRP undetectable subjects (n = 5)
[4] = Placebo vs High dose, chronic visit, all subjects (n = 12)
[5] = Placebo vs High dose, chronic visit, male subjects (n = 9)
[6] = Placebo vs Low dose, acute visit, all subjects (n = 12)
[7] = Placebo vs Low dose, acute visit, male subjects (n = 9)
[8] = Placebo vs Low dose, chronic visit, FMRP undetectable subjects (n = 5)
[9] = Placebo vs Low dose, chronic visit, all subjects (n = 12)
[10] = Placebo vs Low dose, chronic visit, male subjects (n = 9)
[11] = high dose relative to low dose, acute, male patients
[12] = high dose relative to low dose, acute, peripheral FMRP nondetectable patients
[13] = high dose relative to low dose, chronic, all patients
[14] = high dose relative to low dose, chronic, male patients
[15] = high dose relative to low dose, chronic, peripheral FMRP nondetectable patients
[16] = low dose vs placebo, chronic, male detectable FMRP group

Structure (SMILES): CCCNC(=O)c1nnc2c(-c3c(F)cccc3OC)cccc2c1N [AZD7325, 4-amino-8-(2-fluoro-6-methoxyphenyl)-N-propylcinnoline-3-carboxamide]
- EEG relative band power: alpha2 [1]: local distant small clusters
- EEG relative band power: beta [1]: elevated broadly in the central and parietal regions
- EEG relative band power: delta [1]: local distant small clusters
- EEG relative band power: alpha2 [2]: central frontal power decrease
- EEG relative band power: beta [2]: elevates a broad region in the central and parietal regions
- EEG relative band power: gamma1 [2]: elevated electrodes in the right frontal region
- EEG relative band power: beta [3]: isolated electrodes in the parietal and occipital areas elevated
- EEG relative band power: gamma [3]: isolated electrodes in the parietal and occipital areas elevated
- EEG relative band power: theta [3]: decreased in the posterior area
- EEG relative band power: beta [4]: electrodes in the parietal and occipital areas elevated
- EEG relative band power: gamma [4]: electrodes in the parietal and occipital areas elevated
- EEG relative band power: theta [4]: decrease in the central area
- EEG relative band power: beta [5]: electrodes in the parietal and occipital areas elevated
- EEG relative band power: gamma [5]: electrodes in the parietal and occipital areas elevated
- EEG relative band power: theta [5]: decrease in the central area
- EEG relative band power: beta (Placebo vs Low dose, acute visit, FMRP undetectable subjects (n = 5)): limited numbers of significantly effected electrodes
- EEG relative band power: beta [6]: limited numbers of significantly effected electrodes
- EEG relative band power: theta [6]: limited numbers of significantly effected electrodes
- EEG relative band power: alpha [7]: limited numbers of significantly effected electrodes
- EEG relative band power: beta [7]: limited numbers of significantly effected electrodes
- EEG relative band power: beta [8]: elevates beta power
- EEG relative band power: theta [8]: reduces theta band power
- EEG relative band power: beta [9]: increases beta and gamma band in the parietal region
- EEG relative band power: gamma [9]: increases beta and gamma band in the parietal region
- EEG relative band power: theta [9]: reduces theta band
- EEG relative band power: alpha [10]: retain consistent
- EEG relative band power: beta [10]: increases beta and gamma bands in the parietal
- EEG relative band power: theta [10]: reduces theta band
- EEG relative band power: beta (high dose relative to low dose, acute, all patients): elevate in multiple clusters
- EEG relative band power: alpha2 [11]: decreased power cluster in the right central region
- EEG relative band power: beta [11]: elevate in multiple clusters
- EEG relative band power: beta [12]: elevate in multiple clusters
- EEG relative band power: delta (left frontal cluster) [12]: reduced delta band power
- EEG relative band power: alpha2 (frontal) [13]: decrease
- EEG relative band power: beta [13]: scattered elevated spots
- EEG relative band power: delta [13]: scattered elevated spots
- EEG relative band power: gamma [13]: scattered elevated spots
- EEG relative band power: alpha2 (frontal area) [14]: decrease in relative power
- EEG relative band power: delta [14]: electrode in left central area elevated
- EEG relative band power: gamma sub-bands [14]: No significant change
- EEG relative band power: alpha2 (temporal side) [15]: decrease in relative power
- EEG relative band power: beta (temporal side) [15]: decrease in relative power
- EEG relative band power: gamma bands [15]: same occipital electrode elevated
- EEG power (beta band) (low dose vs placebo, chronic, female (detectable FMRP)): does not effect
- EEG beta power [16]: elevates beta power
- EEG gamma 1 power (E31) [16]: elevates gamma 1 power
- EEG theta band power [16]: reduces theta band power
- EEG band power: gamma bands (low dose vs placebo, chronic, male subjects, parietal): increases beta and gamma bands in the parietal
- EEG gamma 1 power (E31) (low dose vs placebo, chronic, nondetectable FMRP group): elevates gamma 1 power
- EEG gamma 1 power (low dose, chronic, female subjects): does not grow gamma 1 power
- gamma waves (EEG) (low dose, male patients having undetectable peripheral FMRP): decreased gamma waves
